Experimental data reported in BindingDB's records for patent US9890168 (Shanghai Haiyan Pharmaceutical Technology, 2018).
pIC50: −log10 of the molar value.

Molecular target: Epidermal growth factor receptor (Homo sapiens, UniProt P00533)
Test: Inhibition Assay
Method: The concentration of DMSO after addition of the compound prepared in the above examples of the present invention (i.e., the compound to be tested) was 2 vol %.The working concentrations of each component in 10 μL wild-type EGER kinase reaction system were: 10 μM ATP, 0.8 ng/μL wild-type EGFR kinase, 2 μM Tyr04 substrate (Invitrogen, PV3193). The concentration of DMSO after addition of the compound to be tested was 2 vol %.10 mM drug stock solution was dissolved at room temperature and diluted to a final concentration of 4-0.002 μM with 8 vol % DMSO solution. […] Then 2.5 μl of ATP was added to initiate the reaction. Wherein, ATP was replaced by the reaction buffer in C1 well, no drug was added to C2 well, and the phosphorylated substrate was added to C3 well according to the instructions. The mixture was allowed to react at 25° C. in a shaker in dark for 60 min, 5 μL of Development Reagent B (invitrogen, diluted with TR-FRET dilution buffer) was added and allowed to react at room temperature in the shaker for 60 minutes.

Epidermal growth factor receptor, sequence (P00533 whole entry): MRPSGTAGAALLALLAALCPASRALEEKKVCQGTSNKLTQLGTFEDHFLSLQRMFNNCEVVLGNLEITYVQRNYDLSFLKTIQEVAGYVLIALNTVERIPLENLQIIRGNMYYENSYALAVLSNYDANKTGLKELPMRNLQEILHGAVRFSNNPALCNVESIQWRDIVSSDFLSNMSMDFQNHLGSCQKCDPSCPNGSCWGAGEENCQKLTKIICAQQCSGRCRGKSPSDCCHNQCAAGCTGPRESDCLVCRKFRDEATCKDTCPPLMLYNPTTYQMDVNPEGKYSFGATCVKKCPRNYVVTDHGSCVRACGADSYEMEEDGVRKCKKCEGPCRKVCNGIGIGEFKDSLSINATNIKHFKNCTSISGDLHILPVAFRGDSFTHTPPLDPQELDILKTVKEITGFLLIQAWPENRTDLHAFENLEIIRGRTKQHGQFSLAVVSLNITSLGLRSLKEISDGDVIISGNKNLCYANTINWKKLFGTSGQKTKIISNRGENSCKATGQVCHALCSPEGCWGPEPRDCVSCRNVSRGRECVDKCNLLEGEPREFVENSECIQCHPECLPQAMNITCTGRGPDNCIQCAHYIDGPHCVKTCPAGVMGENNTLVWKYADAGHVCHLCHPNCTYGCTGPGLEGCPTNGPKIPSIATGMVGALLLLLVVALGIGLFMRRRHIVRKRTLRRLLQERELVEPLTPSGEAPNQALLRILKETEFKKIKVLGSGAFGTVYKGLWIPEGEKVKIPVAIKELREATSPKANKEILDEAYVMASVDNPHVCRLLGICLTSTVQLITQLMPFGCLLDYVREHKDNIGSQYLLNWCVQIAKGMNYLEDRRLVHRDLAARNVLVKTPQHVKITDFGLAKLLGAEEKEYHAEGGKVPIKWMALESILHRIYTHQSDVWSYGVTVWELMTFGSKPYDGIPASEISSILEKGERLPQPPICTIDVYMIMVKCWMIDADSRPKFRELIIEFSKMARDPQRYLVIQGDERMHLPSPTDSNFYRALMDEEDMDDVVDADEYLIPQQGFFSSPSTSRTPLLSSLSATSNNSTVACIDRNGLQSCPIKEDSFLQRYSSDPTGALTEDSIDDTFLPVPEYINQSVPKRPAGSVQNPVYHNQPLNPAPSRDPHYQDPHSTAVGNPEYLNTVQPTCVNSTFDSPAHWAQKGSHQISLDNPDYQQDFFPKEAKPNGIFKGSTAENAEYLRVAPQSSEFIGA

SMILES	pIC50
C=CC(=O)Nc1cc(Nc2nc(-c3cnn(C)c3)c3cc[nH]c3n2)c(OC)cc1OCCN(C)C [US9890168, Compound 10]	6.24
C=CC(=O)Nc1cc(Nc2nc(-c3cnn(C)c3)c3c(C)c[nH]c3n2)c(OC)cc1N1CCC(N(C)C)CC1 [US9890168, Compound 14]	< 6.00
